Literature values as cited in PMC4499460 (The Journal of organic chemistry, 2015).

Settings: in 1 N H2SO4

ϕf of quantum yield reference: 0.54
Compound: C=C[C@H]1CN2CC[C@H]1C[C@H]2[C@H](O)c1ccnc2ccc(OC)cc12.O=S(=O)(O)O [quinine bisulfate]
